According to patent US10350202B2, “Composition and method for treating skin conditions” (442 Ventures, LLC, priority 2010, dated 2019):

Test system: warts
Assay: In vivo treatment of warts
Parameters: species or system human
Settings: topical application to warts
Procedure: A composition including an imidazoquinoline compound; and a retinoid agent was tested in vivo. Imiquimod (5% (wt/wt)) and tazarotene (0.1% (wt/wt) were combined in a 1:1 ratio. The resulting composition was topically applied to individual warts in approximately 30 patients. The patients had various types of warts (thick and thin) in varying locations including palms, soles, hands, legs, feet, trunk, and extremities (including periungual). The composition could be used occluded or non-occluded, at the patient's option.

| Structure (SMILES) | treatment result on warts (in words) |
| --- | --- |
| CC(C)Cn1cnc2c(N)nc3ccccc3c21 [imiquimod, 1-(2-methylpropyl)-1H-imidpzo[4,5-c]quinolin-4-amine] | not as efficacious |
| CCOC(=O)c1ccc(C#Cc2ccc3c(c2)C(C)(C)CCS3)nc1 [tazarotene] | not as efficacious |
